{"source": "ChEMBL document CHEMBL2321873", "about": "“1-(4-Phenylpiperazin-1-yl)-2-(1H-pyrazol-1-yl)ethanones as novel CCR1 antagonists” (Bioorg Med Chem Lett, 2013)", "key": {"[1]": {"biological_target": "T1, C-X-C chemokine receptor type 1 (Homo sapiens) (UniProt P25024)", "T1 sequence (whole entry)": "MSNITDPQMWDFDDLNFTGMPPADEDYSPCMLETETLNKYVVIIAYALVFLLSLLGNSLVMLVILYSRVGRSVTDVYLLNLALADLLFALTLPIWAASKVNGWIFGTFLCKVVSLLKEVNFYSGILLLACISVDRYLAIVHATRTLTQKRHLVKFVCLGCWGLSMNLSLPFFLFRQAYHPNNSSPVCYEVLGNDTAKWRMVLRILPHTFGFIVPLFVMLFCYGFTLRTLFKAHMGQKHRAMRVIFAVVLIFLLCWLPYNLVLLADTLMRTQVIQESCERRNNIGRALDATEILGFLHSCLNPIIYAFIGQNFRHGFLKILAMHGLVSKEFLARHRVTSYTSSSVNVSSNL", "assay": "Antagonist activity at CXCR1 (unknown origin) assessed as inhibition of calcium flux at 10 uM", "type": "functional"}, "[2]": {"biological_target": "T2, C-C chemokine receptor type 4 (Homo sapiens) (UniProt P51679)", "T2 sequence (whole entry)": "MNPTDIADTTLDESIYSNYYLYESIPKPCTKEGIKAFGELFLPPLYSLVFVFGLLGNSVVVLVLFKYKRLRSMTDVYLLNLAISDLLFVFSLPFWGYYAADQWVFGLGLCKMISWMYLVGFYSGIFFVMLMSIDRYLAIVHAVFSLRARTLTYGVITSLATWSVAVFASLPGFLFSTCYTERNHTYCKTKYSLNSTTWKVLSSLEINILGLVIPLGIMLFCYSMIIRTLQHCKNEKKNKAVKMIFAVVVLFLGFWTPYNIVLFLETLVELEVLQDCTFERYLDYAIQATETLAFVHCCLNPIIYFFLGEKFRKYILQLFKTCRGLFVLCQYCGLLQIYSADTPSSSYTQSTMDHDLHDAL", "assay": "Binding affinity to CCR4 (unknown origin) at 10 uM by radioligand displacement assay"}, "[3]": {"biological_target": "T3, C-X-C chemokine receptor type 2 (Homo sapiens) (UniProt P25025)", "T3 sequence (whole entry)": "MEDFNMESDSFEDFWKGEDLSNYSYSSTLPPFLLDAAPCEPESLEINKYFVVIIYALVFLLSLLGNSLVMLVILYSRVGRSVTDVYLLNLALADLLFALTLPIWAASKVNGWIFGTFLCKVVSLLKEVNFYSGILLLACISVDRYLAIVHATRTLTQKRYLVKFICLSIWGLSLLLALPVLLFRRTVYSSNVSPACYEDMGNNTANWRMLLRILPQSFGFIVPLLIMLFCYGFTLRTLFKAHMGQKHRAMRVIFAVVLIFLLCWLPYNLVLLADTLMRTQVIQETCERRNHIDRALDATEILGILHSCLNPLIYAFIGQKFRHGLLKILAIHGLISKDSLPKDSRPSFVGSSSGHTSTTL", "assay": "Antagonist activity at CXCR2 (unknown origin) assessed as inhibition of chemotaxis at 10 uM"}, "[4]": {"biological_target": "T2, C-C chemokine receptor type 4 (Homo sapiens)", "assay": "Antagonist activity at CCR4 (unknown origin) assessed as inhibition of calcium flux at 10 uM", "type": "functional"}, "[5]": {"biological_target": "T4, CX3C chemokine receptor 1 (Homo sapiens) (UniProt P49238)", "T4 sequence (whole entry)": "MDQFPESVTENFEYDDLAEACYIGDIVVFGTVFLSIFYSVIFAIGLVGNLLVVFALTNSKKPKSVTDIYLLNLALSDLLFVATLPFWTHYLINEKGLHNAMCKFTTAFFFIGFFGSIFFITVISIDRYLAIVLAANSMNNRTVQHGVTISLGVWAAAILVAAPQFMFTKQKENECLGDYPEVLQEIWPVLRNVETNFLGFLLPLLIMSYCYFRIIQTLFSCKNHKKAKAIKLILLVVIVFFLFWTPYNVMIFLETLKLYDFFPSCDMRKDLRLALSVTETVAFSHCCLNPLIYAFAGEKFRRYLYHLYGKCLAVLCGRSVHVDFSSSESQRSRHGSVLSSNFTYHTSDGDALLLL", "assay": "Antagonist activity at CX3CR1 (unknown origin) assessed as inhibition of calcium flux at 10 uM", "type": "functional"}, "[6]": {"biological_target": "T5, C-X-C chemokine receptor type 5 (Homo sapiens) (UniProt P32302)", "T5 sequence (whole entry)": "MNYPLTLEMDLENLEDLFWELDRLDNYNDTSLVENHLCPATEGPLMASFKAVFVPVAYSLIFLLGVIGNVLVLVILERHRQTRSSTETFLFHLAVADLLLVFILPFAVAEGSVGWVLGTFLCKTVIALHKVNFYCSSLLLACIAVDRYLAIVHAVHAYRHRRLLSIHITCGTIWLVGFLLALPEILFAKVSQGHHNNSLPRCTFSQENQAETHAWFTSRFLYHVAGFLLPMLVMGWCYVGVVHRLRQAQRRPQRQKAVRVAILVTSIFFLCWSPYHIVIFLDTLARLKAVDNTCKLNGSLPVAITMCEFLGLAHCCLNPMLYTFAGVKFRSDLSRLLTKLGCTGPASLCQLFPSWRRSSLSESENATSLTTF", "assay": "Antagonist activity at CXCR5 (unknown origin) assessed as inhibition of chemotaxis at 10 uM"}, "Rattus norvegicus": {"system": "Rattus norvegicus", "assay": "Toxicity in Sprague-Dawley rat assessed as effect on body weight at 70 to 360 mg/kg, po after 7 days", "type": "organism-based", "parameters": "dose 70-360 mg/kg, route oral", "conditions": "in vivo, 168 h"}, "[7]": {"biological_target": "T6, C-C chemokine receptor type 6 (Homo sapiens) (UniProt P51684)", "T6 sequence (whole entry)": "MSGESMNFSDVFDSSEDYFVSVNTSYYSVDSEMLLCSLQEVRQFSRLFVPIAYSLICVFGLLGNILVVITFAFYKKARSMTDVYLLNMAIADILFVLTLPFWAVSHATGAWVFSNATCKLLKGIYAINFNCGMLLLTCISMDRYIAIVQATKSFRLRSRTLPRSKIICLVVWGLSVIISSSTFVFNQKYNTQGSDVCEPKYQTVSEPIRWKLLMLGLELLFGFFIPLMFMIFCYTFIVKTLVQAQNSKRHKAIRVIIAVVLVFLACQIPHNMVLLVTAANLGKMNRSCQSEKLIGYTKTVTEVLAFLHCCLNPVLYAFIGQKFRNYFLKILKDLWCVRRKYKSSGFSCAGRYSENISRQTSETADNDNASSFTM", "assay": "Binding affinity to CCR6 (unknown origin) at 10 uM by radioligand displacement assay"}, "[8]": {"biological_target": "T5, C-X-C chemokine receptor type 5 (Homo sapiens)", "assay": "Binding affinity to CXCR5 (unknown origin) at 10 uM by radioligand displacement assay"}, "Cytochrome P450 2C9": {"biological_target": "Cytochrome P450 2C9 (Homo sapiens, UniProt P11712)", "sequence (P11712 whole entry)": "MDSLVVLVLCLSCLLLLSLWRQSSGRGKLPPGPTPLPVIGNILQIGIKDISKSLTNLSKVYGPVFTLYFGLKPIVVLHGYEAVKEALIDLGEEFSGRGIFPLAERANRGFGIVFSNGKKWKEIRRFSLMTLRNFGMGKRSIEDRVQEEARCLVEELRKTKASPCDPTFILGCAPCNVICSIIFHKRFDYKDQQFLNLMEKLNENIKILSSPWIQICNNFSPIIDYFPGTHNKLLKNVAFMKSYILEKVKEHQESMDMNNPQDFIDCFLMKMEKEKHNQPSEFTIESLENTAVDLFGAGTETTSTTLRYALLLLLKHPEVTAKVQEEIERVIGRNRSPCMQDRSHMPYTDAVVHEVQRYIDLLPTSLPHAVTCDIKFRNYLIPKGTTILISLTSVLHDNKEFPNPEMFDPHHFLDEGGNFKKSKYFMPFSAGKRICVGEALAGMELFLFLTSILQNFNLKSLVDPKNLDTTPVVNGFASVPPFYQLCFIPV", "assay": "Competitive inhibition of CYP2C9 (unknown origin)", "type": "ADME"}}, "note": "Activity calls are given as the source filed them. No cut-off for these calls is given here.", "data": [{"smiles": "COc1cc(N2CCN(C(=O)Cn3nc(C(F)(F)F)c(Cl)c3C)CC2)ccc1Cl", "values": [{"measurement": "inhibition", "setting": "[1]", "value": "inactive"}, {"measurement": "Activity", "setting": "[2]", "value": "inactive"}, {"measurement": "inhibition", "setting": "[3]", "value": "inactive"}, {"measurement": "inhibition", "setting": "[4]", "value": "inactive"}, {"measurement": "inhibition", "setting": "[5]", "value": "inactive"}, {"measurement": "inhibition", "setting": "[6]", "value": "inactive"}, {"measurement": "Activity", "setting": "Rattus norvegicus", "value": "Non-toxic"}, {"measurement": "Activity", "setting": "[7]", "value": "inactive"}, {"measurement": "Activity", "setting": "[8]", "value": "inactive"}, {"measurement": "IC50", "setting": "Cytochrome P450 2C9", "value": "> 10", "unit": "µM"}]}]}
